This is an account of results in ChEMBL document CHEMBL1121445, “Structure-activity analyzed by pattern recognition: the asymmetric case” (J Med Chem, 1980).

Molecules are shown by their SMILES. Calls of active or inactive are those of the source. No cut-off for these calls is given here.

Data set [1] is described as follows: Partition coefficient (logP). Format: physicochemical. Conditions: octanol/water.
Data set [2] concerns Plasmodium berghei. As to the kind of experiment: Antimalarial activity against Plasmodium berghei; Active. Format: functional, organism-based.
The subject of data set [3] is Plasmodium berghei. The data set can be described thus: Antimalarial activity against Plasmodium berghei. Format: functional, organism-based.

Broadly, the logP is the decadic logarithm of the partition coefficient of the neutral form, usually between octanol and water. With `O=C1C=C(NCCCCC2CCCCC2)c2ccccc2C1=O`, in data set [1] (read-out: logP), the logP is 6.11. Also, in data set [2], the result was Active.

With `CCCCCOC1=CC(=O)C(=O)c2ccccc21`, in data set [1] (read-out: logP), the logP was 3.38. In data set [3], the Activity entry is “Not toxic”.

Regarding `O=C1C(=O)C2=C(CCCC2)C(O)=C1CCCC1CCCCC1`, in data set [1] (read-out: logP), the logP stood at 5.93. Besides, the Activity entry in data set [3] is “Not toxic”.

As for `CCCCCN(CCCCC)CCC/N=C1/C=C(O)C(=O)c2ccccc21`, in data set [1] (read-out: logP), the logP stood at 5.47. Also, the outcome in data set [2] was Active.

Take `CCCCCCCCCCCCCCSC1=C(O)C(=O)c2cccnc2C1=O`: in data set [1] (read-out: logP), the logP is 8.62. For the same compound, the outcome in data set [2] was Active.

In the case of `Cc1ccc(/N=C2/C(N)=CC(=O)c3ncccc32)cc1C`, the logP in data set [1] (read-out: logP) is 2.5. The Activity entry in data set [3] is “Not toxic”.

On to `O=C1C(=O)c2ccccc2C(O)=C1CCCC1CCCCC1`, for which the logP in data set [1] (read-out: logP) is 5.31. The result in data set [2] was Active.

Take `O=C(CCC1CCCCC1)C1=CC(=O)c2ccccc2C1=O`: in data set [1] (read-out: logP), the logP worked out at 4.1. Moreover, the Activity entry in data set [3] is “Not toxic”.

Consider `CCCCCCCCCCC1=C(O)C(=O)c2cc(OC)ccc2C1=O`, for which the logP in data set [1] (read-out: logP) came to 6.47. Also, the Activity entry in data set [3] was “Not toxic”.

For `O=C1C(=O)c2cc(Cl)ccc2C(O)=C1CCCCC1CCCCC1`, in data set [1] (read-out: logP), the logP was 6.69. The Activity entry in data set [3] was “Not toxic”.

In data set [1], `CCCCCCCCCCCCCCCCCCSC1=C(O)C(=O)c2cccnc2C1=O` registered a lipophilicity (logP) of 9.62. Besides, the outcome in data set [2] was Active.

For the compound `CCCCCCCCCCC1=C(O)C(=O)c2ccc(Br)cc2C1=O`, the logP in data set [1] (read-out: logP) came out at 7.17. The Activity result in data set [3] was “Not toxic”.

As for `COc1ccc(/N=C2/C(Nc3ccc(OC)cc3)=CC(=O)c3ncccc32)cc1`, in data set [1] (read-out: logP), the logP came to 4.5. For the same compound, in data set [3], the Activity result was “Not toxic”.

For `O=C1C(=O)c2ccc(O)cc2C(O)=C1CCCC1CCCCC1`, the logP in data set [1] (read-out: logP) was found to be 4.64. Also, the Activity result in data set [3] is “Not toxic”.

Consider `CCN(CC)C1=CC(=O)C(=O)c2ccccc21`, for which the logP in data set [1] (read-out: logP) was found to be 3.28. Besides, in data set [2], the outcome was Active.

Take `O=C1C=C(Nc2ccc(Cl)cc2)/C(=N/c2ccc(Cl)cc2)c2cccnc21`: the logP in data set [1] (read-out: logP) worked out at 5.6. Further, in data set [3], the Activity entry was “Not toxic”.

For `CCCCCCCCCCCC1=C(O)C(=O)C=C(O)C1=O` [EMBELIN], the logP in data set [1] (read-out: logP) was 5.04. The Activity result in data set [3] is “Not toxic”.

On to `CCOC(=O)c1ccc(/N=C2/C(Nc3ccc(C(=O)OCC)cc3)=CC(=O)c3ncccc32)cc1`, for which the logP in data set [1] (read-out: logP) stood at 4.5. For the same compound, the Activity result in data set [3] is “Not toxic”.

With `CC(C)CCC1=CC(=O)c2ccccc2C1=O`, the logP in data set [1] (read-out: logP) stood at 4. Moreover, the Activity result in data set [3] is “Not toxic”.

With `O=C1C(=O)c2cccnc2C(Nc2ccccc2)=C1Cl`, the logP in data set [1] (read-out: logP) came to 1.3. The Activity result in data set [3] is “Not toxic”.

In the case of `Cc1ccc2c(c1)C(=O)C(CCC(C)C)=C(O)C2=O`, the logP in data set [1] (read-out: logP) amounted to 4.26. For the same compound, the result in data set [2] was Active.

As to `CC(C)CCC1=C(N)C(=O)c2ccccc2C1=O`, the lipophilicity (logP) in data set [1] (read-out: logP) was determined as 4.37. Besides, the Activity result in data set [3] is “Not toxic”.

Take `CC1=C(O)C(=O)c2ccccc2C1=O`: in data set [1] (read-out: logP), the logP is 0.2. Also, the Activity entry in data set [3] was “Not toxic”.

As for `O=C1C(=O)c2ncccc2C(O)=C1CCCCCCCCC1CCCCC1`, the logP in data set [1] (read-out: logP) is 6.5. Besides, in data set [2], the outcome was Active.

Take `O=C1C(=O)c2c(ccc3ccccc23)C(O)=C1CCCC1CCCCC1`: the logP in data set [1] (read-out: logP) turned out to be 6.63. Moreover, the Activity entry in data set [3] was “Not toxic”.

For `CCCCCC/N=C1/C=C(O)C(=O)c2ccc(C)nc21`, the log partition coefficient (logP) in data set [1] (read-out: logP) worked out at 1.5. Also, the Activity entry in data set [3] is “Not toxic”.

Take `CC1=C(CCC(C)C)C(=O)c2ccccc2C1=O`: in data set [1] (read-out: logP), the lipophilicity (logP) turned out to be 4.69. Also, the Activity entry in data set [3] is “Not toxic”.

With `COc1ccc(NC2=CC(=O)C(=O)c3ccccc32)cc1`, in data set [1] (read-out: logP), the logP was determined as 1.9. The outcome in data set [2] was Active.

Regarding `CCN(CC)CCCC/N=C1/C=C(O)C(=O)c2ccccc21`, the logP in data set [1] (read-out: logP) amounted to 3.79. In data set [2], the result was Active.

On to `CCCC/N=C1\C=C(O)c2ncccc2C1=N`, for which the logP in data set [1] (read-out: logP) was 1.5. In data set [3], the Activity entry was “Not toxic”.

Turning to `CCCCCCCCCCCCSC1=C(O)C(=O)c2cccnc2C1=O`, the logP in data set [1] (read-out: logP) was 6.62. The result in data set [2] was Active.

Take `CCCCCCCCCC1=C(O)C(=O)c2sccc2C1=O`: the logP in data set [1] (read-out: logP) amounted to 5.06. Besides, the Activity entry in data set [3] was “Not toxic”.

`CC(C)CCC1=C(Cl)C(=O)c2ccccc2C1=O`: the logP in data set [1] (read-out: logP) was 4.64. Also, the Activity result in data set [3] was “Not toxic”.

For the compound `CCOC1=CC(=O)C(=O)c2ccccc21`, in data set [1] (read-out: logP), the logP was 1.2. Further, the Activity result in data set [3] is “Not toxic”.

`Cc1ccc(NC2=C(Cl)C(=O)C(=O)c3cccnc32)cc1`: the logP in data set [1] (read-out: logP) worked out at 1.5. Further, the Activity result in data set [3] was “Not toxic”.

For `NC1=CC(=O)C(=O)c2cccnc21`, the logP in data set [1] (read-out: logP) is 1.2. The Activity entry in data set [3] is “Not toxic”.

As for `CCCCCCCCCCC1=C(O)C(=O)c2ccc(OC)cc2C1=O`, the logP in data set [1] (read-out: logP) stood at 6.47. Besides, the Activity result in data set [3] was “Not toxic”.

As for `CCCCCCCCCCCCCCCC1=C(O)C(=O)c2cccnc2C1=O`, the logP in data set [1] (read-out: logP) is 7.5. The result in data set [2] was Active.

With `CC(C)CCC1=C(O)C(=O)c2ccccc2C1=O`, in data set [1] (read-out: logP), the logP was determined as 3.87. Moreover, the outcome in data set [2] was Active.

`CCCCCCCCCCCCCCCC/N=C1\C=C(O)c2ncccc2C1=O`: the logP in data set [1] (read-out: logP) stood at 7.8. Also, the Activity result in data set [3] was “Not toxic”.

Take `O=C1C(O)=C(CCCCCCCCC2CCCCC2)C(=O)c2ccccc21` [MENOCTONE]: the lipophilicity (logP) in data set [1] (read-out: logP) is 7.81. The outcome in data set [2] was Active.

Regarding `CCCC(C)COC1=CC(=O)C(=O)c2ccccc21` (stereo unspecified), the logP in data set [1] (read-out: logP) amounted to 3.38. For the same compound, the Activity result in data set [3] was “Not toxic”.

`CN(C)CCCN(C1=CC(=O)C(=O)c2ccccc21)c1ccccc1`: the logP in data set [1] (read-out: logP) worked out at 3.4. For the same compound, the outcome in data set [2] was Active.

Regarding `Cc1ccc2c(c1)C(=O)C(O)=C(CCC(C)C)C2=O`, in data set [1] (read-out: logP), the logP was found to be 4.26. For the same compound, the outcome in data set [2] was Active.

For `NC1=CC(=O)c2ncccc2/C1=N\c1ccc(Cl)cc1`, the logP in data set [1] (read-out: logP) came to 2.5. In addition, in data set [3], the Activity entry is “Not toxic”.

In the case of `Cc1ccc(/N=C2/C(Nc3ccc(C)c(C)c3)=CC(=O)c3ncccc32)cc1C`, the logP in data set [1] (read-out: logP) amounted to 5.6. Besides, the Activity entry in data set [3] was “Not toxic”.

Take `COc1ccc(/N=C2/C(N)=CC(=O)c3ncccc32)cc1`: the logP in data set [1] (read-out: logP) is 1.5. Besides, in data set [3], the Activity result was “Not toxic”.

With `NC1=CC(=O)c2ncccc2/C1=N\c1ccccc1`, in data set [1] (read-out: logP), the logP worked out at 1.5. Moreover, in data set [3], the Activity result was “Not toxic”.
